63 compounds from patent publication US6797726B1, “N-alkoxyalkyl-N,N-dialkylamine derivatives or salts thereof, and remedies for nerve degeneration diseases containing the same” (Toyama Chemical Co., Ltd., priority 1999, dated 2004) can be followed below.

One data set deals with ddY male mice. Nature of the data set: Anti-hypoxic activity. Format: in vivo. Conditions: 100 mg/kg orally, 30 minutes after administration, gas 4% oxygen / 96% nitrogen at 5 L/minute; for response vs control in vivo at 100 mg/kg: Mus musculus, po, 0.5 h, read-out: Anti-hypoxic activity: (survival time of mouse in administered group)÷(survival time of mouse in control group)×100. On the procedure:
A test compound (100 mg/kg) dissolved in distilled water is orally administered to ddY male mice of 5-6 weeks age (6-10 heads per group). Thirty minutes after the administration, each mouse was introduced into a glass vessel, and a gas mixture consisting of 4% of oxygen and 96% of nitrogen was passed through the glass vessel at a rate of 5 L/minute. The period of the time from the beginning of sending the gas to the death of the animal was measured.
To the control group, only distilled water was orally given. Anti-hypoxic activity of test compound was calculated according to the following equation:
(Survival time of mouse in administered group)÷(Survival time of mouse in control group)×100(%)

Data set [1] concerns cultured nerve cells death induced by HNE. Nature of the data set: Activity of inhibiting the HNE-induced nerve cell death (MTT assay). The note with it: 0.1 μM; HNE 25 μmol/L; cultured rat embryo cerebral cortex nerve cells; 24 hours. Format: cell-based, Wistar rat. An excerpt: The protecting effect against the death of cultured nerve cells induced by HNE was examined by a modification of the method described in the Journal of Neuroscience, Vol. 17, Page 5089 (1997).
Cerebral cortex excised from the brain of an embryo of Wistar rat (embryonal age 17-19 days) was cut into small pieces and then treated with trypsin to dissociate the nerve cells. The cells were spread onto a 48-well tissue-culture plate at a rate of 5×10^5 cells per well, and cultured under a condition of 5% carbon dioxide, 37° C., in a Dulbecco modified Eagle medium to which 10% fetal calf serum and 3.6 mg/mL glucose were added.
In order to inhibit the proliferation of glia cells, cytosine arabinoside was added so as to give a final concentration of 10 μmol/L, from the day one after starting the culture. When the culture had been continued for 2 days, the medium was changed to a Dulbecco modified Eagle medium to which 10% fetal calf serum and 3.6 mg/mL glucose were added. When the culture had been continued for 7-8 days, a test agent was added, after which HNE was immediately added so as to give a final concentration of 25 μmol/L.
The inhibitory activity of an agent on the cultured nerve cell death was […] by using the inhibitory activity on the depression of MTT reducing ability as an index. That is, 24 hours after addition of a test agent, MTT assay [Journal of Immunological Methods, Vol. 65, Page 55 (1983)] developed by Mossmann was carried out, based on which inhibitory rate (%) of the agent on the decrease of MTT assay induced by HNE was calculated.
Inhibitory rate=[MTT assay value of (HNE+agent)−added group)−(MTT assay value of HNE−added group)]÷(MTT assay value of no addition group−MTT assay value of HNE−added group)]×100
(Tetrazolium dyes change colour on reduction, which living cells bring about.)

Molecules are shown by their SMILES. Structures can show the parent of a compound that is named as a salt.

As for `COc1cc2sccc2cc1CCOCCN(C)C` [Example 53, N,N-Dimethyl-N-{2-[2-(6-methoxybenzo[b]thiophen-5-yl)ethoxy]ethyl}-amine hydrochloride], in the data set with ddY male mice, the response vs control in vivo at 100 mg/kg is 200%.
In general, melting point refers to the temperature, or range, at which the solid turns liquid. On to `CCN(CC)CCCCCOCCc1ccc2sccc2c1.Cl`, for which the melting point lay within 138.5 to 140 °C.
Consider `CN(CCOCCc1ccc2sccc2c1)C1CC1` [Example 158, N-[2-(2-benzo[b]thiophen-5-ylethoxy)ethyl]-N-cyclopropyl-N-methylamine hydrochloride], for which, in the data set with ddY male mice, the response vs control in vivo at 100 mg/kg was 179%.
`O=C(O)C(=O)O.OCCN(CCOCCc1ccc2sccc2c1)Cc1ccccc1`: the melting point lay in the range of 104 to 105.5 °C.
On the same count and under the same terms, then `CN(C)CCOCCc1ccc2sccc2c1F.O=C(O)C(=O)O`, with 118 to 121 °C; and `CN(C)CCOCCc1cc2ccsc2cc1F.O=C(O)C(=O)O`, with 120 to 126 °C.
As for `CN(C)CCOCCc1cccc2sccc12.Cl`, the melting point lay in the range of 165 to 167 °C.
Compound `CN(C)CCOCCc1ccc2sccc2c1Cl.Cl` displayed a melting point of 92 to 95 °C.
Same read-out and setting: then `CN(C)CCOCCc1ccc2c(c1)OCO2.O=C(O)C(=O)O`, with 109 to 112 °C.
For the compound `CCN(CC)CCOCCc1cc2ccsc2cc1F` [Example 31, N,N-diethyl-N-{2-[2-(6-fluorobenzo[b]thiophen-5-yl)ethoxy]ethyl}amine oxalate], the response vs control in vivo at 100 mg/kg in the data set on ddY male mice turned out to be 248%.
On the same count and under the same terms, then `CC(O)CN(C)CCOCCc1ccc2sccc2c1` (centres unmarked) [Example 144, 1-{[2-(2-Benzo[b]thiophen-5-ylethoxy)ethyl]-(methyl)amino}-2-propanol oxalate], with 250%.
Compound `CN(CCCO)CCOCCc1ccc2sccc2c1.O=C(O)C(=O)O` yielded a melting point of 93 to 95 °C.
The same measure, in the same setting: then `C#CCN(CCOCCc1ccc2sccc2c1)Cc1ccccc1.O=C(O)C(=O)O`, with 107 to 108 °C.
`CCN(CC)CCOCCc1ccc2c(c1)CCC2.Cl` [Example 105, N-{2-[2-(2,3-Dihydro-1H-inden-5-yl)ethoxy]ethyl}-N,N-diethylamine hydrochloride] displayed a melting point of 104 to 105 °C. In addition, in data set [1], the “Inhibitory rate on the decrease of MTT assay induced by HNE” value is on record as 31%.
Take `CN(CCOCCc1ccc2sccc2c1)CCOC(=O)c1ccccc1.Cl`: the melting point lay in the range of 97 to 98 °C.
Still for that read-out and setting: then `C#CCN(CC)CCOCCc1ccc2sccc2c1.Cl`, with 115 to 123 °C.
Compound `CCN(CC)CCCOCCc1ccc2sccc2c1.O=C(O)C(=O)O` showed a melting point of 87.5 to 89 °C.
The same measure, in the same setting: then `Cc1cc2cc(CCOCCN(C)CCO)ccc2s1.O=C(O)C(=O)O`, with 73 to 75 °C.
Still for that read-out and setting: then `CN(C)CCN(C)CCOCCc1ccc2sccc2c1.Cl.Cl`, with 228 to 230 °C.
The compound `CN(C)CCOCCc1ccc(F)c2ccsc12.Cl` displayed a melting point of 67 to 69 °C.
Still for that read-out and setting: then `CCN(CC)CCOCCc1cc2occc2cc1OC.Cl`, with 90 to 92 °C.
The same measure, in the same setting: then `CN(CCOCCc1cc2ccsc2cc1F)Cc1ccccc1.O=C(O)C(=O)O`, with 96 to 98 °C.
The compound `CCN(CC)CCOCCc1c(F)cc2ccsc2c1F.Cl` came in with a melting point of 98 to 100 °C.
As to `CCN(CC)CCOCCc1cccc2ccsc12.O=C(O)C(=O)O`, the melting point fell in the range of 75 to 76 °C.
The compound `CCN(CC)CCOCCc1ccc2sc(C(=O)O)cc2c1.Cl` gave a melting point of 148 to 150 °C.
As for `CCN(CC)CCOCCc1cccc2ccccc12` [Example 49, N,N-diethyl-N-{2-[2-(1-naphthyl)ethoxy]ethyl}-amine oxalate], in the data set on ddY male mice, the response vs control in vivo at 100 mg/kg worked out at 173%.
In the case of `CN(CCOCCc1ccc2sccc2c1)Cc1ccc([N+](=O)[O-])cc1.O=C(O)C(=O)O`, the melting point lay in the range of 112 to 114 °C.
Compound `CCN(CC)CCOCCc1ccc2ncccc2c1.O=C(O)C(=O)O` gave a melting point of 90 to 92 °C.
The same measure, in the same setting: then `CCN(CC)CCCCCc1ccc2sccc2c1.O=C(O)C(=O)O`, with 58 to 60 °C; and `CCN(CC)CCOCCc1c(F)ccc2ccsc12.Cl`, with 71 to 73.5 °C.
For `CCN(CC)CCOCCc1ccc2ccsc2c1` [Example 101, N-[2-(2-Benzo[b]thiophen-6-ylethoxy)ethyl]-N,N-diethylamine oxalate], in the data set on ddY male mice, the response vs control in vivo at 100 mg/kg was 187%.
With `COc1ccc(CN(C)CCOCCc2ccc3sccc3c2)cc1.O=C(O)C(=O)O`, the melting point is 78.5 to 81 °C.
On the same count and under the same terms, then `CN(CCO)CCOCCc1ccc2sc(F)cc2c1.O=C(O)C(=O)O`, with 77 to 80 °C; and `CCN(CC)CCOCCc1ccc2c(c1)OCO2` [Example 25, N-{2-[2-(1,3-benzodioxol-5-yl)ethoxy]ethyl}-N,N-diethylamine], with 83 to 84 °C; and `CCN(CC)CCOCCc1ccc2sc(C)cc2c1.O=C(O)C(=O)O`, with 96 to 98 °C.
Still for that read-out and setting: then `CN(C)CCOCCc1ccc2ccccc2c1.Cl`, with 105 to 107 °C; and `CN(CCO)CCCCCOCCc1ccc2sccc2c1.O=C(O)C(=O)O`, with 78.5 to 80.5 °C.
`CC(COCCc1ccc2sccc2c1)N(C)CCO.O=C(O)C(=O)O` (centres unmarked) yielded a melting point of 72 to 74 °C.
The same measure, in the same setting: then `CN(CCOCCc1ccc2sccc2c1)CCOC(=O)C(C)(C)C.Cl`, with 118 to 119 °C; and `CN(CCO)CCOCCc1c(F)ccc2ccsc12.Cl`, with 69 to 72 °C; and `CN(C)CCOCCc1cc2ccsc2cc1Cl.Cl`, with 105 to 108 °C.
Still for that read-out and setting: then `CCCN(CCC)CCOCCc1ccc2sccc2c1.O=C(O)C(=O)O`, with 93 to 98 °C.
The same measure, in the same setting: then `CCOC(=O)OCCN(C)CCOCCc1ccc2sccc2c1.Cl`, with 73.5 to 76 °C.
For the compound `CCN(CC)CCOCCc1ccc2occc2c1` [Example 13, N-[2-(2-Benzo[b]furan-5-ylethoxy)ethyl]-N,N-diethylamine oxalate], the response vs control in vivo at 100 mg/kg with ddY male mice was 160%.
The compound `CN(C)CCOCCc1ccc2occc2c1.O=C(O)C(=O)O` showed a melting point of 101 to 103 °C.
Same read-out and setting: then `CC(CO)N(C)CCOCCc1ccc2sccc2c1.O=C(O)C(=O)O` (centres unmarked), with 97 to 99 °C.
Regarding `COc1ccc2cc(CCOCCN(C)C)ccc2c1.Cl`, the melting point was 125 to 128 °C.
In turn, `CCC(Cc1ccc2sccc2c1)OCCN(CC)CC.Cl` (centres unmarked) returned a melting point of 84.5 to 87 °C.
On to `CCN(CC)CCOCCc1cc2ccsc2cc1OC.O=C(O)C(=O)O`, for which the melting point lay within 80 to 83 °C.
On the same count and under the same terms, then `CCN(CC)CCOCCc1cccc2sccc12.O=C(O)C(=O)O`, with 79 to 82 °C.
On to `C#CCN(C)CCOCCc1ccc2sccc2c1.Cl` [Example 70, N-[2-(2-benzo[b]thiophen-5-ylethoxy)ethyl]-N-methyl-N-(2-pripynyl)amine hydrochloride], for which the “Anti-hypoxic activity: (survival time of mouse in administered group)÷(survival time of mouse in control group)×100” value in the data set with ddY male mice is reported as 213%.
In the case of `CN(CCOCCc1ccc2sccc2c1)Cc1ccc(F)cc1.O=C(O)C(=O)O`, the melting point fell in the range of 149 to 150.5 °C.
Still for that read-out and setting: then `CCN(CC)CCOCCc1ccc2ccccc2c1.O=C(O)C(=O)O`, with 67 to 72 °C.
As for `CN(C)CCOCCc1cccc2ccccc12.Cl`, the melting point was in the range of 183 to 184 °C.
The same measure, in the same setting: then `CN(CCO)CCOCCc1cccc2ccsc12.Cl`, with 74 to 76 °C.
The same measure, in the same setting: then `CN(CCO)CCOCCc1cc2ccsc2cc1F.O=C(O)C(=O)O`, with 96 to 99 °C.
Still for that read-out and setting: then `CN(C)CCOCCc1cccc2ccsc12.Cl`, with 130 to 132 °C; and `CN(C)CCOCCc1ccc2sc(-c3ccccc3)cc2c1.Cl`, with 170 to 172 °C.
For the compound `CN(CCOCCc1ccc2sccc2c1)Cc1ccccc1.O=C(O)C(=O)O` [Example 20, N-[2-(2-benzo[b]thiophen-5-ylethoxy)ethyl]-N-benzyl-N-methylamine oxalate], in data set [1], the “Inhibitory rate on the decrease of MTT assay induced by HNE” value came out at 69%. The response vs control in vivo at 100 mg/kg with ddY male mice was 155%.
`CC(C)N(CCOCCc1ccc2sccc2c1)C(C)C.Cl` yielded a melting point of 78 to 79 °C.
With `CCN(C)CCOCCc1ccc2sccc2c1` [Example 102, N-[2-(2-Benzo[b]thiophen-5-ylethoxy)ethyl]-N-ethyl-N-methylamine oxalate], the response vs control in vivo at 100 mg/kg in the data set on ddY male mice is 210%.
`CCN(CC)CCOCCc1ccc2occc(=O)c2c1.Cl` showed a melting point of 173 to 176 °C.
On the same count and under the same terms, then `CCN(CCO)CCOCCc1ccc2sccc2c1.O=C(O)C(=O)O`, with 53 to 56 °C.
